Experimental data from US20240368204A1, “SMALL MOLECULAR CD73 ANTAGONIST AND USE THEREOF” (XIZANG HAISCO PHARMACEUTICAL CO., LTD., priority 2021, published 2024).

The compounds below were run against Human recombinant protein CD73 (Homo sapiens (Human), UniProt P21589) (assay: CD73 enzyme activity in vitro (Malachite Green, AMP substrate)). Conditions: recombinant CD73, 100 μM AMP substrate solution, absorbance at 620 nm.
Type: biochemical
Experimental: 1. Test Method for CD73 Enzyme Activity In Vitro
Human recombinant protein CD73 (Acro, Cat. No. CD3-H52H7) was prepared into a 0.04 ng/μL protein solution, and substrate AMP (Sigma, Cat. No. A1752-1G) was prepared into a 100 μM substrate solution. 5 μL of compounds at different concentrations were added into a 384-well white transparent bottom plate, 5 μL of 0.04 ng/μL recombinant CD73 enzyme solution was added, and the mixture was incubated at room temperature for 15 minutes. 10 μL of 100 μM substrate solution was added, the mixture was incubated at 37° C. for 40 minutes, 5 μL of Malachite Green Reagent A (R&D, Cat. No. DY996) was added, the mixture was incubated at room temperature for 10 minutes, and finally, 5 μL of Malachite Green Reagent B was added, the mixture was incubated at room temperature for 20 minutes, and a microplate reader PHERAstar FSX instrument was used to detect the absorbance at 620 nm. IC50 values were calculated using the origin9.2 software. The calculation formula of the inhibition rate was shown in Formula 1, wherein ODsample is the readout for the compound, ODnegative is the readout for the negative control without substrate, and ODpositive is the readout for the vehicle control.

Human recombinant protein CD73, sequence (P21589 27-574): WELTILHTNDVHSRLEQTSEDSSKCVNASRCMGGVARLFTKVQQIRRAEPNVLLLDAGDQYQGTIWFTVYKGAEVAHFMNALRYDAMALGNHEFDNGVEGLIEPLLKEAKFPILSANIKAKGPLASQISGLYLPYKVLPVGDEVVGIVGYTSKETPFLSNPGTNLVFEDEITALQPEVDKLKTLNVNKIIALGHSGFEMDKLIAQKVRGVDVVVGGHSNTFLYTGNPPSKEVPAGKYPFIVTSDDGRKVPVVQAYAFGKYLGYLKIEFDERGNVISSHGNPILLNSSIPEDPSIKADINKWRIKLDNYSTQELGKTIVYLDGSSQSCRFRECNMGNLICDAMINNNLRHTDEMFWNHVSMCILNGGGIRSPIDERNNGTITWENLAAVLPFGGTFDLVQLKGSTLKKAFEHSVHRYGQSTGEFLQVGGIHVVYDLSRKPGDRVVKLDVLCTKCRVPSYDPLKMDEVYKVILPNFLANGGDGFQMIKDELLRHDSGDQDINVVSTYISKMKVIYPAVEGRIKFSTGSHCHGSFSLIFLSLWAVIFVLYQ

IC50 [nM]	SMILES
0.7	O=P(O)(O)CP(=O)(O)OC[C@H]1O[C@@H](n2ncc3c(N4C[C@H]5CCC[C@H]5C4)nc(Cl)nc32)[C@H](O)[C@@]1(O)CO [Compound 28, (((((2R,3S,4R,5R)-5-(6-chloro-4-((3aR,6aS)-hexahydrocyclopenta[c]pyrrol-2(1H)-yl)-1H-pyrazolo[3,4-d]pyrimidin-1-yl)-3,4-dihydroxy-3-(hydroxymethyl)tetrahydrofuran-2-yl)methoxy)(hydroxy)phosphoryl)methyl)phosphonic acid]
0.7	O=P(O)(O)CP(=O)(O)OC[C@H]1O[C@H](n2ncc3c(N4C[C@H]5CCC[C@H]5C4)nc(Cl)nc32)[C@H](O)[C@@]1(O)CO [Compound 31, (((((2R,3S,4R,5S)-5-(6-chloro-4-((3aR,6aS)-hexahydrocyclopenta[c]pyrrol-2(1H)-yl)-1H-pyrazolo[3,4-d]pyrimidin-1-yl)-3,4-dihydroxy-3-(hydroxymethyl)tetrahydrofuran-2-yl)methoxy)(hydroxy)phosphoryl)methyl)phosphonic acid]
1.2	O=P(O)(O)CP(=O)(O)OC[C@H]1O[C@@H](n2ncc3c(N4C[C@H]5CCC[C@H]5C4)nc(Cl)nc32)[C@H](O)[C@@]1(O)C(F)F [Compound 33, (((((2R,3S,4R,5R)-5-(6-chloro-4-((3aR,6aS)-hexahydrocyclopenta[c]pyrrol-2(1H)-yl)-1H-pyrazolo[3,4-d]pyrimidin-1-yl)-3-(difluoromethyl)-3,4-dihydroxytetrahydrofuran-2-yl)methoxy)(hydroxy)phosphoryl)methyl)phosphonic acid]
0.3	C[C@@]1(O)[C@@H](COP(=O)(O)CP(=O)(O)O)O[C@@H](n2ncc3c(N4C[C@H]5CCC[C@H]5C4)nc(Cl)nc32)[C@@H]1O [Compound 38, (((((2R,3S,4R,5R)-5-(6-chloro-4-((3aR,6aS)-hexahydrocyclopenta[c]pyrrol-2(1H)-yl)-1H-pyrazolo[3,4-d]pyrimidin-1-yl)-3,4-dihydroxy-3-methyltetrahydrofuran-2-yl)methoxy)(hydroxy)phosphoryl)methyl)phosphonic acid]
0.06	C#C[C@@]1(O)[C@@H](COP(=O)(O)CP(=O)(O)O)O[C@@H](n2ncc3c(N4C[C@H]5CCC[C@H]5C4)nc(Cl)nc32)[C@@H]1O [Compound 40, (((((2R,3S,4R,5R)-5-(6-chloro-4-((3aR,6aS)-hexahydrocyclopenta[c]pyrrol-2(1H)-yl)-1H-pyrazolo[3,4-d]pyrimidin-1-yl)-3-ethynyl-3,4-dihydroxytetrahydrofuran-2-yl)methoxy)(hydroxy)phosphoryl)methyl)phosphonic acid]

The next lines start with the compound.

SMILES	IC50 [nM]
C[C@H](Nc1cc(Cl)nc2c1cnn2[C@@H]1O[C@H](COP(=O)(O)CP(=O)(O)O)[C@](O)(CO)[C@H]1O)c1ccccc1F [Compound 12, (((((2R,3S,4R,5R)-5-(6-chloro-4-(((S)-1-(2-fluorophenyl)ethyl)amino)-1H-pyrazolo[3,4-b]pyridin-1-yl)-3,4-dihydroxy-3-(hydroxymethyl)tetrahydrofuran-2-yl)methoxy)(hydroxy)phosphoryl)methyl)phosphonic acid]	0.4
CONc1nc(Cl)nc2c1cnn2[C@@H]1O[C@H](COP(=O)(O)CP(=O)(O)O)[C@@H](O)[C@H]1O [Compound 18, (((((2R,3S,4R,5R)-5-(6-chloro-4-(methoxyamino)-1H-pyrazolo[3,4-d]pyrimidin-1-yl)-3,4-dihydroxytetrahydrofuran-2-yl)methoxy)(hydroxy)phosphoryl)methyl)phosphonic acid]	1.8
CONc1cc(Cl)nc2c1cnn2[C@@H]1O[C@H](COP(=O)(O)CP(=O)(O)O)[C@@H](O)[C@H]1O [Compound 24, (((((2R,3S,4R,5R)-5-(6-chloro-4-(methoxyamino)-1H-pyrazolo[3,4-b]pyridin-1-yl)-3,4-dihydroxytetrahydrofuran-2-yl)methoxy)(hydroxy)phosphoryl)methyl) phosphonic acid]	5.3
O=P(O)(O)CP(=O)(O)OC[C@H]1O[C@@H](n2ncc3c(NOC4CCCC4)nc(Cl)nc32)[C@H](O)[C@@H]1O [Compound 25, (((((2R,3S,4R,5R)-5-(6-chloro-4-((cyclopentyloxy)amino)-1H-pyrazolo[3,4-d]pyrimidin-1-yl)-3,4-dihydroxytetrahydrofuran-2-yl)methoxy)(hydroxy)phosphoryl)methyl)phosphonic acid]	0.4
CC(C)ONc1cc(Cl)nc2c1cnn2[C@@H]1O[C@H](COP(=O)(O)CP(=O)(O)O)[C@@H](O)[C@H]1O [Compound 26, (((((2R,3 S,4R,5R)-5-(6-chloro-4-(isopropoxyamino)-1H-pyrazolo[3,4-b]pyridin-1-yl)-3,4-dihydroxytetrahydrofuran-2-yl)methoxy)(hydroxy)phosphoryl)methyl)phosphonic acid]	2.9
CC(C)ONc1nc(Cl)nc2c1cnn2[C@@H]1O[C@H](COP(=O)(O)CP(=O)(O)O)[C@@H](O)[C@H]1O [Compound 27, (((((2R,3S,4R,5R)-5-(6-chloro-4-(isopropoxyamino)-1H-pyrazolo[3,4-d]pyrimidin-1-yl)-3,4-dihydroxytetrahydrofuran-2-yl)methoxy)(hydroxy)phosphoryl)methyl)phosphonic acid]	1.7
O=P(O)(O)CP(=O)(O)OC[C@H]1O[C@@H](n2ncc3c(N4C[C@H]5CCC[C@H]5C4)cc(Cl)nc32)[C@H](O)[C@@]1(O)CO [Compound 29, (((((2R,3S,4R,5R)-5-(6-chloro-4-((3aR,6aS)-hexahydrocyclopenta[c]pyrrol-2(1H)-yl)-1H-pyrazolo[3,4-b]pyridin-1-yl)-3,4-dihydroxy-3-(hydroxymethyl)tetrahydrofuran-2-yl)methoxy)(hydroxy)phosphoryl)methyl) phosphonic acid]	2.6
O=P(O)(O)CP(=O)(O)OC[C@H]1O[C@@H](n2ncc3c(NOCc4ccccc4)nc(Cl)nc32)[C@H](O)[C@@H]1O [Compound 30, (((((2R,3S,4R,5R)-5-(4-((benzyloxy)amino)-6-chloro-1H-pyrazolo[3,4-d]pyrimidin-1-yl)-3,4-dihydroxytetrahydrofuran-2-yl)methoxy)(hydroxy)phosphoryl)methyl)phosphonic acid]	0.2
O=P(O)(O)CP(=O)(O)OC[C@H]1O[C@@H](n2ncc3c(N4C[C@H]5CCC[C@H]5C4)cc(Cl)nc32)[C@H](O)[C@@]1(O)C(F)F [Compound 32, (((((2R,3S,4R,5R)-5-(6-chloro-4-((3aR,6aS)-hexahydrocyclopenta[c]pyrrol-2(1H)-yl)-1H-pyrazolo[3,4-b]pyridin-1-yl)-3-(difluoromethyl)-3,4-dihydroxytetrahydrofuran-2-yl)methoxy)(hydroxy)phosphoryl)methyl)phosphonic acid]	0.9

The compounds below were run on B16F10 xenograft tumor (assay: B16F10 xenograft tumor model in vivo). Conditions: 30 mg/kg, single agent.
Parameters: species or system mouse
Experimental: B16F10 Xenograft Tumor Model In Vivo
B16F10 cells were purchased from ATCC, the cell medium was DMEM+10% FBS+1% double antibody, and the cells were cultured in an incubator at 37° C. under 5% CO2. After the cells had grown to a number sufficient for inoculation, the cells were harvested. The cell-containing culture solution was transferred to a 50 mL sterile centrifuge tube, and centrifuged at 1500 rpm for 3 minutes. The centrifuge tube was taken out after centrifugation, and the supernatant was discarded. The cells were resuspended in a pre-cooled PBS and centrifuged at 1500 rpm for 3 minutes, and after centrifugation, the supernatant was discarded; the process was repeated twice. Finally, the cells were resuspended in a pre-cooled PBS. After counting, the cells were diluted to 1×10^6 cells/mL with a pre-cooled PBS. […] The second day of inoculation was recorded as Day 0, and compound 28 (the vehicle was phosphate buffer saline) was given by intragastric administration every day after randomization, and animals in both the group with the anti-PD-1 antibody (anti-PD-1; BioXcell, Cat. CD279) and the group with combined drugs were injected intraperitoneally with the anti-PD-1 antibody (twice a week). The long and short diameters of the tumors were measured with an electronic vernier caliper, and the body weight of the animals was recorded. […]

SMILES	TGI % (day 15) [%]
C[C@H](Nc1cc(Cl)nc2c1cnn2[C@@H]1O[C@H](COP(=O)(O)CP(=O)(O)O)[C@@H](O)[C@H]1O)c1ccccc1F [AB680, reference compound]	57.96

Same assay, conditions: 100 mg/kg, intragastric administration every day, single agent

SMILES	TGI % (day 15) [%]
O=P(O)(O)CP(=O)(O)OC[C@H]1O[C@@H](n2ncc3c(N4C[C@H]5CCC[C@H]5C4)nc(Cl)nc32)[C@H](O)[C@@]1(O)CO [Compound 28, (((((2R,3S,4R,5R)-5-(6-chloro-4-((3aR,6aS)-hexahydrocyclopenta[c]pyrrol-2(1H)-yl)-1H-pyrazolo[3,4-d]pyrimidin-1-yl)-3,4-dihydroxy-3-(hydroxymethyl)tetrahydrofuran-2-yl)methoxy)(hydroxy)phosphoryl)methyl)phosphonic acid]	50.12
